Patent US20260250318A1, “COMPOSITIONS AND METHODS FOR CROSSING THE BLOOD BRAIN BARRIER” (VOYAGER THERAPEUTICS, INC., priority 2022, published 2026)

System: brains, heart, liver, muscle, and DRG of the NHPs
Assay: Maturation of TTM-001 and TTM-002 capsids, NGS enrichment in NHP tissues
Type: in vivo
Description: This Example describes maturation of the AAV9 capsid variants, TTM-001 (SEQ ID NO: 981 (amino acid) and 983 (DNA), comprising SEQ ID NO: 941 (encoded by SEQ ID NO: 942)) and TTM-002 (SEQ ID NO: 982 (amino acid) and 984 (DNA), comprising SEQ ID NO: […] (encoded by SEQ ID NO: 944)) in NHPs to further enhance their transduction and biodistribution in the central nervous system as well as other tissues, and evolve the AAV capsid variants to provide further cross-species compatibility. Two approaches were used to mature the TTM-001 and TTM-002 capsid sequences in order to randomize and mutate within and around the peptide insert comprised within loop IV of the capsid variant. […] In the first maturation approach, sets of three contiguous amino acids were randomized across the mutagenesis region in the TTM-001 and TTM-002 sequences, which spanned from position 450 to position 466, numbered according to SEQ ID NO: 981 and 982. In the second maturation approach, mutagenic primers were used to introduce point mutations at a low frequency, scattered across the mutagenesis region in the TTM-001 and TTM-002 sequences ranging from position 449 to position 466, numbered according to SEQ ID NO: 981 and 982. AAV capsid variants arising from each maturation approach for TTM-001 and TTM-002 were pooled together, for subsequent testing and characterization in NHPs.
The library of pooled matured AAV capsid variants generated using the first maturation approach and the second maturation approach for the TTM-001 and TTM-002 AAV capsid variants were injected into two NHPs. […] Following RNA recovery and RT-PCR amplification, a systematic NGS enrichment analysis was performed to calculate the fold enrichment ratio relative to an AAV9 control, and the peptides comprised within the variants were identified.
Following the RNA recovery and NGS analysis from the second maturation approach, approximately 680,000 capsid variants were identified. The 680,000 matured capsid variants were then filtered based on samples with a raw virus count greater than 10 and a coefficient of variance (CV) of less than 1, which was calculated for each peptide across the brain samples taken from the two NHPs. […] Using this filtering criteria, this led to approximately 64,000 matured capsid variants.

[1] = NHP DRG, NGS, relative to AAV9 control
[2] = NHP brain, NGS, relative to AAV9 control
[3] = NHP heart, NGS, relative to AAV9 control
[4] = NHP liver DNA, NGS, relative to AAV9 control
[5] = NHP liver RNA, NGS, TTM-001 and TTM-002 matured AAV capsid variants, relative to AAV9 control
[6] = NHP muscle, NGS, relative to AAV9 control
[7] = NGS fold-enrichment, DRG, NHP, relative to AAV9
[8] = NGS fold-enrichment, brain, NHP, relative to AAV9
[9] = NGS fold-enrichment, heart, NHP, relative to AAV9
[10] = NGS fold-enrichment, liver DNA, NHP, relative to AAV9
[11] = NGS fold-enrichment, liver RNA, NHP, relative to AAV9
[12] = NGS fold-enrichment, muscle, NHP, relative to AAV9

Sequence | Fold Enrichment relative to AAV9, DRG (NHP) [1] [fold] | Fold Enrichment relative to AAV9, Brain (NHP) [2] [fold] | Fold Enrichment relative to AAV9, Heart (NHP) [3] [fold] | Fold Enrichment relative to AAV9, Liver DNA (NHP) [4] [fold] | Fold Enrichment relative to AAV9, Liver RNA (NHP) [5] [fold] | Fold Enrichment relative to AAV9, Muscle (NHP) [6] [fold] | Fold Enrichment relative to AAV9, DRG (NHP) [7] [fold] | Fold Enrichment relative to AAV9, Brain (NHP) [8] [fold] | Fold Enrichment relative to AAV9, Heart (NHP) [9] [fold] | Fold Enrichment relative to AAV9, Liver DNA (NHP) [10] [fold] | Fold Enrichment relative to AAV9, Liver RNA (NHP) [11] [fold] | Fold Enrichment relative to AAV9, Muscle (NHP) [12] [fold]
KTINGSISPHCPAQNQQT | 0.000 | 0.000 | 0.000 | 0.556 | 24.932 | 0.000 | – | – | – | – | – | –
KTINGSLSPHFWAQNQQT | 0.000 | 0.000 | 0.000 | 2.041 | 43.190 | 0.000 | – | – | – | – | – | –
KTINGSRSPHAWAQNQQT (peptide inserted in AAV capsid) | 0.000 | 0.000 | 0.000 | 6.838 | 31.146 | 0.000 | – | – | – | – | – | –
KTINGSSSPHRCAQNQQT (peptide inserted in AAV capsid) | 0.000 | 0.000 | 0.000 | 1.829 | 28.887 | 0.000 | – | – | – | – | – | –
KTINGSSSPHWMAQNQQT (peptide inserted in AAV capsid) | 0.000 | 0.000 | 0.000 | 2.390 | 16.635 | 0.000 | – | – | – | – | – | –
KTINGSVSPHCTAQNQQT (peptide inserted in AAV capsid) | 0.000 | 0.000 | 0.000 | 2.955 | 13.502 | 0.000 | – | – | – | – | – | –
KTINGSYSPHCLAQNQQT (peptide inserted in AAV capsid) | 0.000 | 0.000 | 0.000 | 0.309 | 62.942 | 0.000 | – | – | – | – | – | –
KTINGTRSPHKKAQNQQT | 0.225 | 0.700 | 0.052 | 1.152 | 14.173 | 4.082 | – | – | – | – | – | –
KTINHRISPHSKAQNQQT | 0.000 | 0.000 | 0.000 | 1.876 | 42.998 | 0.000 | – | – | – | – | – | –
KTINKCLSPHSKAQNQQT | 0.000 | 0.000 | 0.000 | 5.097 | 30.667 | 0.000 | – | – | – | – | – | –
KTINLGCSPHSKAQNQQT | 0.000 | 0.000 | 0.000 | 0.654 | 12.564 | 0.000 | – | – | – | – | – | –
KTINRQFSPHSKAQNQQT | – | – | – | – | – | – | 0.000 | 0.000 | 0.000 | 4.480 | 10.275 | 0.000
KTINRYSSPHSKAQNQQT | – | – | – | – | – | – | 0.000 | 0.000 | 0.000 | 1.544 | 10.926 | 0.000
KTINSCFSPHSKAQNQQT | 0.000 | 0.000 | 0.000 | 1.016 | 11.847 | 0.000 | – | – | – | – | – | –
KTINWSRSPHSKAQNQQT | 0.000 | 0.000 | 0.000 | 5.624 | 14.399 | 0.000 | – | – | – | – | – | –
KTINYTRSPHSKAQNQQT | 0.000 | 0.000 | 0.000 | 0.431 | 11.514 | 0.000 | – | – | – | – | – | –
KTISGHDSPHISGQYQQT | 0.000 | 0.000 | 0.074 | 0.420 | 12.395 | 1214.588 | – | – | – | – | – | –
KTIVGSGSPHSKPQNQQT | – | – | – | – | – | – | 0.000 | 0.000 | 0.000 | 0.894 | 10.381 | 0.000
KTKLCSGSPHSKAQNQQT | 0.000 | 0.000 | 0.000 | 2.139 | 12.570 | 0.000 | – | – | – | – | – | –
KTMQRSGSPHSKAQNQQT | 0.000 | 0.000 | 0.000 | 3.159 | 18.020 | 0.000 | – | – | – | – | – | –
KTQRKSGSPHSKAQNQQT | 0.000 | 0.000 | 0.000 | 1.439 | 119.659 | 0.000 | – | – | – | – | – | –
KTRKRSGSPHSKAQNQQT | 0.000 | 0.000 | 0.000 | 2.075 | 16.603 | 0.000 | – | – | – | – | – | –
KTRRPSGSPHSKAQNQQT | 0.000 | 0.000 | 0.000 | 2.384 | 42.374 | 0.000 | – | – | – | – | – | –
KTRTRSGSPHSKAQNQQT | 0.000 | 0.000 | 0.000 | 6.894 | 25.852 | 0.000 | – | – | – | – | – | –
